Data published in patent US12440500B2, “Phytoecdysones and the derivatives thereof for use in the treatment of neuromuscular diseases” (BIOPHYTIS, priority 2019, dated 2025).

What was measured:
Assay type in all cases: in vivo, mouse
[1] = system: muscles Soleus, Plantaris and Tibialis of SMA mice; test: Histological analysis of muscle cross-sections (Hematoxylin-Eosin): number and cross-section surface of muscle fibers
Procedure: At P11, one hour after their last gavage, the treated mice were anaesthetized with pentobarbital 1% at 6 μL/g of mouse then the extensor muscles Soleus, with a mixed typology, extensor Plantaris, with a fast typology, and flexor Tibialis, with a fast typology, were sampled in order to conduct histological or molecular studies. After sampling, the muscles Soleus, Plantaris and Tibialis were included individually in a preservation medium then frozen in cooled isopentane. For each muscle, medial cross-sections 10 μm thick were realized. These sections were stained with Hematoxyline-Eosin, dehydrated and mounted in an inclusion medium. The images of these sections were taken with a microscope (with a magnification ×200). In order to obtain images with an impression of relief, the differential interference contrast technique was used. From these images, the number of muscle fibers of each muscle and the cross-section surface of 20% of these fibers were counted using image processing software (FIG. 2).

[2] = system: SMA mice (FVB/NRj-SmnΔ7/Δ7 huSMN2+/+ 2 copies); test: Phenotypic analysis: weight and survival of severe SMA mice under daily gavage
Description: A severe SMA mouse model was used on an FVB/NRj gene pool, characterized by the invalidation of the exon 7 of the murine gene Smn and expressing 2 copies of the human transgene SMN2 (Smn^Δ7/Δ7; huSMN2^+/+) (Hsieh et al., 2000). The mice resulting from these crossings having the “FVB/NRj-Smn^Δ7/Δ7 huSMN2^+/+ 2 copies” genotype are described as “SMA”. These mice are characterized by progressive growth failure which is observed starting from 4 days post-natal and have a degeneration of about 50% of the motor neurons of the ventral horn of the spinal cord at the end of life, progressive muscular atrophy and an average lifespan of about 12 days (Hsieh et al., 2000). The mice having the “FVB/NRj-Smn^+/Δ7 huSMN2^++ 2 copies” genotype have no particular phenotype and are used as so-called “control” mice. The mice were treated via daily gavage of a dose of 50 mg/kg, either with the molecule BIO101 complexed to a vehicle (cyclodextrin in the present case), or with the vehicle alone (VH). The weight and the survival were analyzed on a daily basis until P11. In the rest of the description, n corresponds to the size of the sample and p corresponds to the “p value” used to quantify the statistical significance of a result.
The same type II murine model was used to characterize the phenotypic effects of the molecule BIO103 in a severe SMA model. The mice were treated via daily gavage of a dose of 50 mg/kg, either with the molecule BIO103 complexed with the vehicle (cyclodextrin in the present case), or with the vehicle alone (VH). The weight and the survival were analyzed on a daily basis until P11.

[3] = system: neuromuscular junctions of muscles soleus, plantaris and tibialis of SMA mice; test: Morphological study of neuromuscular junction maturation (immunofluorescence)
SMN protein = test: Western blot, level of expression of the SMN protein in SMA mice
Procedure: The frozen muscle Plantaris was homogenized in extraction buffer by mechanical grinding. The supernatant containing the protein extract was sampled, then the protein extracts were then dosed according to the Lowry protein assay. An electrophoresis on SDS-PAGE gel was conducted, then the separated proteins were transferred onto membranes. The primary antibodies used were the following: mouse monoclonal anti-SMN (1:5,000), rabbit polyclonal anti-Ser 473 phospho-AKT (1:1000), rabbit polyclonal anti-AKT ( 1/100), rabbit monoclonal anti phospho-ERK ½ (1:500), anti-MAP Kinase ½ (ERK ½) (1:1000). […] The optical density of each specific band was quantified with image processing software by subtracting the background and by normalizing with the optical density of the β-actin bands. For the controls treated with the vehicle, the values obtained were determined at 1 and the values of the other groups were normalized in relation to these controls and expresses as a relative quantity. […] The quantitative values of pAKT at the Plantaris represent 3 mice per group treated with the vehicle (control or SMA) and 4 mice treated with BIO101. The quantitative values of pERK at the Plantaris represent at least 4 mice per group. The quantitative values of SMN represent n=2. […]

Q: How did the “proportion of muscle fibers with cross-section surface greater than 300 μm^2” value ([1]; Plantaris, FIG. 13B) turn out when `CC(C)(O)CC[C@@H](O)[C@](C)(O)[C@H]1CC[C@@]2(O)C3=CC(=O)[C@@H]4C[C@@H](O)[C@@H](O)C[C@]4(C)[C@H]3CC[C@]12C` [BIO101, 20-hydroxyecdysone] was run?
A: increase

Q: What about the “proportion of muscle fibers with cross-section surface less than 200 μm^2” value ([1]; Plantaris, FIG. 13B) of the same compound?
A: decrease

Q: And the “atrophy of the muscle fibers (cross-section surface) in relation to healthy control mice” value (“atrophy of the muscle fibers” for short) ([1]; Plantaris, P11, SMA mice treated P0 to P11 (SMA vehicle 46%))?
A: 17.9%

Q: What about the “proportion of fibers with cross-section surface between 0 and 100 μm^2” value ([1]; Plantaris, versus SMA vehicle) of the same compound?
A: decrease

Q: What about the “proportion of fibers with cross-section surface between 200 and 400 μm^2” value ([1]; Plantaris, versus SMA vehicle) of the same compound?
A: increase

Q: And the “proportion of muscle fibers with cross-section surface greater than 300 μm^2” value ([1]; Soleus, FIG. 13C)?
A: increase

Q: What about the “proportion of muscle fibers with cross-section surface less than 200 μm^2” value ([1]; Soleus, FIG. 13C) of the same compound?
A: decrease

Q: And the “atrophy of the muscle fibers” value ([1]; Soleus, P11, SMA mice treated P0 to P11 (SMA vehicle 50.2%))?
A: 37.8%

Q: What about the “proportion of fibers with cross-section surface between 100 and 200 μm^2” value ([1]; Soleus, versus SMA vehicle) of the same compound?
A: decrease

Q: And the “proportion of fibers with cross-section surface between 200 and 400 μm^2” value ([1]; Soleus, versus SMA vehicle)?
A: increase

Q: And the “atrophy of the muscle fibers” value ([1]; Tibialis, P11, SMA mice treated P0 to P11 (SMA vehicle 56.1%))?
A: 32.7%

Q: And the “number of muscle fibers” value ([1]; Tibialis, SMA mice treated P0 to P11, 50 mg/kg)?
A: 2,358 fibers

Q: And the “increase in number of muscle fibers compared to vehicle” value ([1]; Tibialis, SMA mice treated P0 to P11, p<0.05)?
A: 14%

Q: And the “proportion of fibers with cross-section surface between 400 and 800 μm^2” value ([1]; Tibialis, versus SMA vehicle)?
A: significant increase

Q: And the “proportion of fibers with cross-section surface between 100 and 200 μm^2” value ([1]; Tibialis, versus SMA vehicle, p<0.05)?
A: decreases significantly

Q: What about the pre-P11 mortality ([2]; 50 mg/kg daily gavage P0 to P11, versus vehicle, p<0.05) of the same compound?
A: significantly reduces

Q: And the “loss of weight of the animals” value ([2]; 50 mg/kg daily gavage from birth to P11, versus vehicle)?
A: significantly limit

Q: What about the “percentage of neuromuscular junctions of the perforated type” value (“percentage … of the perforated type” for short) ([3]; Soleus, treated daily from birth to P10, p<0.05 versus vehicle) of the same compound?
A: 26.5%

Q: And the “percentage … of the perforated type” value ([3]; Tibialis, treated daily from birth to P10, p<0.05 versus vehicle)?
A: 45.7%

Q: What about the “percentage of immature plates” value ([3]; all the muscles tested, treated daily from birth to P10) of the same compound?
A: decrease

Q: And the “percentage … of the perforated type” value ([3]; muscle plantaris, treated daily from birth to P10, p=ns versus vehicle)?
A: 16.3%

Q: And the “level of expression of SMN” value (SMN protein; muscle Plantaris, SMA mice treated P0 to P11)?
A: no modification

Q: And the “level of SMN” value (SMN protein; spinal cord, SMA mice treated for 11 days)?
A: does not allow for the restoration
